Data: patent publication US20170144972A1, “METHODS OF LOWERING PROPROTEIN CONVERTASE SUBTILISIN/KEXIN TYPE 9 (PCSK9)” (Catabasis Pharmaceuticals, Inc., priority 2012, published 2017)

What was measured:
PCSK9 = PCSK9 secretion assay in HepG2 cells (PCSK9 ELISA of supernatant); type: cell-based; conditions: for lowering of PCSK9 (FIG. 1): 25 and 50 μM
Experimental: HepG2 cells (from ATCC, Catalog no. HB-8065) were maintained in DMEM (Invitrogen) supplemented with 10% fetal bovine serum (Invitrogen). The day prior to the PCSK9 assay, cells are seeded in 96-well collagen coated plates at 25,000 cells/well.
The compounds of the invention were stored at −20° C. until used. The test article compound was dissolved in 100% ethanol to a 50 mM stock solution. This was then diluted in FBS to a final concentration of 1 mM. This solution was placed in a sonicating water bath for 30 minutes. Subsequent dilutions were then made in FBS supplemented with an equivalent volume of ethanol and mixed by vortexing.
HepG2 cells were seeded onto a collagen coated 96-well plate (Becton Dickinson, Catalog no. 35-4407) the day prior to the assay, as described above. The next day, the cell medium was removed, washed once with […] serum free DMEM to remove any residual PCSK9, and replaced with […] of serum free DMEM. Ten microliters of each compound concentration prepared in FBS was then added. Each concentration of compound was tested in triplicate. The compound was incubated with the cells overnight for 16 hours. Following this incubation, 10 µL of AlamarBlue was added to each well and cells incubated for another 2 hours. The plates were then removed and AlamarBlue fluorescence was measured (excitation, 550 nm and […]) to assess cell viability. Cell culture supernatant was then diluted […] 1×RDSP Calibrator Diluent and PCSK9 ELISA was then performed with […] of this diluted sample, as per the manufacturer's instructions. The ELISA was measured on a Victor X5 multilabel plate reader (PerkinElmer) at an absorbance of 450 nm with background correction measured at 550 nm (The PCSK9 Elisa kits can be purchased from R&D System, Catalog no. DPC900).
Alternatively, an IC50 could also be obtained when this type of assay was carried out using at least 6 different concentrations of the test compounds. Table 1 lists the IC50 values for the compounds tested in this assay.

APOE*3Leiden mice = assay: Plasma cholesterol and triglycerides in ApoE3Leiden mice on Western type diet, 2 and 4 weeks of treatment; type: in vivo; conditions: female APOE*3Leiden mice, WTD, I-8 0.75% w/w in diet, atorvastatin 0.0015% w/w in diet
Experimental: The study was conducted using female APOE*3Leiden mice (groups of each n=10) and one untreated reference control group on chow (n=5). To induce dyslipidemia, a high cholesterol Western type diet containing 1% cholesterol, 15% cacao butter, 40.5% sucrose and 1% corn oil (WTD) was fed to the mice for a total experimental period of 20 weeks (of which 4 weeks are a run-in period).
The dyslipidemic mice were grouped on the basis of plasma cholesterol at t=0 assayed in 4 h fasting blood. Mice with low cholesterol after the run-in period were excluded so that homogenous experimental groups were obtained. A group of reference mice (n=5) remained on a chow diet during the complete study period (normolipidemic reference mice).
This mix was then added to the master mix (containing the rest of the ingredients) and mixed thoroughly. The diet was frozen to −20° C. On the subsequent day, the diet was broken into small pellets (approx 5 g per piece) and freeze dried, and stored in vacuum sealed bags (approx 500 g) at −20° C. until use. The diets were refreshed daily and unused diet was discarded.
1) Body weight at −4, 0, 2, 4 weeks 2) Food intake (g/day/mouse) at 0, 2, 4 weeks (per cage) 3) Plasma total cholesterol at −4, 0, 2, 4 weeks (individually) 4) Plasma triglycerides at −4, 0, 2, 4 weeks (individually) 5) Lipoprotein profiles at 0 (pool of all animals) and 4 weeks (cholesterol distribution over VLDL, LDL and HDL-sized particles, analysis on group level).
EDTA plasma was collected in weeks −4, 0, 2 and 4 weeks.

[1] = test system: Zucker fa/fa Rat model of Dyslipidemia; assay: Plasma triglyceride level of the Zucker fa/fa rat model of dyslipidemia; type: in vivo; conditions: male Zucker rats, po qd, 10, 30, 100 and 300 mg/kg, blood sample day 4
Experimental: Male Zucker rats (HsdHlr: Zucker-Lepr̂fa) between 8-10 weeks of age were purchased from Harlan and maintained on Purina Rodent Diet (5001) for the duration of the study. Animals were randomized and assigned to treatment arms based on body weight and plasma triglyceride (TG) levels (n=8). Inclusion criteria for the study include body weight >300 grams and fed TG levels in plasma >800 mg/dL. Dosing will be initiated on day 1 and continue through day 5. Dosing will be daily (qd) by oral gavage (po) for all treatment arms (Compound I-8 was administered orally at 4 different doses, 10, 30, 100 and 300 mg/kg; in addition, a combination of niacin/EPA in a ratio of 100/200 mg/kg was also employed). Body weights will be measured for all rats on days 1 through 5. On day 4, a blood sample (fed) will be collected from each rat, processed for plasma and stored at −80° C. Plasma triglyceride level was determined from commercial kits using standard protocols. […] Because compound I-8 was able to lower fed plasma triglyceride, it is useful to treat dyslipidemia as well as other diseases such as type I hyperlipoproteinemia and type 5 hyperlipoproteinemia.

ApoE*3 Leiden mice = assay: Liver weight, plasma cholesterol and triglycerides of ApoE*3 Leiden mice, 16 weeks of treatment; type: in vivo; conditions: I-8 in WTD at 7.5 g/kg
Experimental: The same experimental design used in example 6 was used. Two treatment groups were used (n=15). The control animals were kept on a Western type diet (WTD) consisting of 1% cholesterol, 15% cacao butter, 40.5% sucrose, and 1% corn oil. For the treatment group, compound I-8 was administered in the above WTD at a ratio of 7.5 g/kg. Animals were maintained on the WTD or treatment group for 16 weeks. At the conclusion of the study, plasma cholesterol and triglyceride levels were recorded, as well as the weight of the liver. There was a significant decrease in plasma cholesterol, triglyceride levels as well as liver weight in the treatment group. After 16 weeks of treatment, the cholesterol level of the treatment group was 420 mg/dL, compared with a level of 750 mg/dL for the control group; the triglyceride level was 110 mg/dL, compared with a level of 160 mg/dL for the control group.

SMILES: CC/C=C\C/C=C\C/C=C\C/C=C\C/C=C\CCCC(=O)NCCNC(C)=O [Compound A, (5Z,8Z,11Z,14Z,17Z)—N-(2-acetamidoethyl)icosa-5,8,11,14,17-pentaenamide, reference compound]
- activity toward PCSK9 (FIG. 1) (PCSK9; HepG2 cells, highest tested concentration of 50 μM): essentially no activity

SMILES: CC/C=C\C/C=C\C/C=C\C/C=C\C/C=C\CCCC(=O)NCCNC(=O)c1cccnc1 [Compound I-8, N-(2-(5Z,8Z,11Z,14Z,17Z)-eicosa-5,8,11,14,17-pentaenamidoethyl)nicotinamide]
- plasma cholesterol at t=2 weeks (FIG. 4) (APOE*3Leiden mice; 2 weeks): statistically significant reduction
- plasma cholesterol after 4 weeks of treatment (FIG. 5) (APOE*3Leiden mice; 4 weeks): Comparable level of cholesterol reduction
- plasma triglyceride levels after 4 weeks of treatment (FIG. 6) (APOE*3Leiden mice; 4 weeks): significant reduction
- fed plasma triglyceride level (FIG. 3) [1]: dose dependent decrease
- liver weight (FIG. 7) (ApoE*3 Leiden mice): statistically significant drop
- PCSK9 levels in HepG2 cells incubated with atorvastatin (FIG. 2) (PCSK9; HepG2 cells incubated with 10 μM of atorvastatin along with test article): decrease PCSK9 levels in a dose response manner to well below the atorvastatin level induced levels
- lowering of PCSK9 (FIG. 1) (PCSK9; HepG2 cells): significant lowering of PCSK9

SMILES: CC/C=C\C/C=C\C/C=C\C/C=C\C/C=C\CCCC(=O)NCCNC(=O)c1ccccc1 [II-1, N-(2-((5Z,8Z,11Z,14Z,17Z)-icosa-5,8,11,14,17-pentaenamido)ethyl)benzamide]
- lowering of PCSK9 (FIG. 1) (PCSK9; HepG2 cells): significant lowering of PCSK9

SMILES: CC(C)c1c(C(=O)Nc2ccccc2)c(-c2ccccc2)c(-c2ccc(F)cc2)n1CC[C@@H](O)C[C@@H](O)CC(=O)O [atorvastatin, reference compound]
- PCSK9 secretion (FIG. 2) (PCSK9; HepG2 cells, 10 μM atorvastatin alone): increases PCSK9 secretion
